Data taken from patent US20190211044A1, “Adjuvant Chemicals that Prevent Drug Tolerance and Persister Formation by Bacteria” (LifeUnit Inc., priority 2018, published 2019).

Tests used:
[1] = test system: phosphodiesterase activity in biofilms of PA strains; type: cell-based; conditions: bacteria incubated with agent 24-h to form biofilm, lysed, bis-NPP
[2] = test system: PAO1 in residual biofilm; assay: cdG in PAO1 in residual biofilm after dispersal, by LC-MS (Example 4); type: cell-based, Pseudomonas aeruginosa; conditions: PAO1 residual biofilm dispersed by agent, versus original native or abx-promoted biofilm
Procedure: PAO1 in residual biofilm dispersed by 3,5-[…] and 3,5-[…] was tested by Liquid Chromatography-Mass Spectrometry (LC-MS).

[3] = test system: PA PAO1 biofilm; assay: Inhibition of PA PAO1 biofilm (FIG. 1); type: cell-based, Pseudomonas aeruginosa; conditions: compounds at 60 μM
[4] = test system: PAO1 in residual biofilm; assay: cdG by reporter strains versus naturally dispersed PAO1 (Example 7); type: cell-based, Pseudomonas aeruginosa; conditions: PAO1 in residual biofilm dispersed by agent
[5] = test system: PAO1 in residual biofilm; assay: cdG in PAO1 in residual biofilm after dispersal, by reporter strains, GFP/CFP fluorescence (Example 5); type: cell-based, Pseudomonas aeruginosa; conditions: 40 μM for native and 85 μM for abx-promoted biofilm, dispersed 5-h at 37° C., M9 medium
[6] = test system: abx-promoted swarming P. aeruginosa; assay: c-di-GMP in abx-promoted swarming P. aeruginosa, by LC-MS (Example 8); type: cell-based
Procedure: 3,5-DiMeDβM and 3,5-DiMeDβC was tested by Liquid Chromatography-Mass Spectrometry (LC-MS) to show the effect on c-di-GMP on abx-promoted swarming P. aeruginosa.

Substance	phosphodiesterase activity [1]	cdG level in residual biofilm (LC-MS) [2]	biofilm inhibition [3]	cdG level versus naturally dispersed PAO1 (reporter strains) [4]	cdG level in residual biofilm (reporter strains, GFP/CFP) [5]	c-di-GMP on abx-promoted swarming P. aeruginosa (LC-MS) [6]
3,5-dimethyl-C12-βM [3,5-DiMeDβM]	increase phosphodiesterase activity	lower cdG than in original native or abx-promoted biofilm	> 95%	lower cdG than in naturally dispersed PAO1	lower cdG than in original native or abx-promoted biofilm	increases c-di-GMP
3,5-dimethyl-C12-βC [3,5-DiMeDβC]	increase phosphodiesterase activity	lower cdG than in original native or abx-promoted biofilm	–	lower cdG than in naturally dispersed PAO1	lower cdG than in original native or abx-promoted biofilm	increases c-di-GMP
